According to PMC11284788, “NN1213 – A Potent, Long-Acting, and Selective Analog of Human Amylin” (Journal of Medicinal Chemistry, 2024):

Experiments:
DIO rats = assay: DIO rat weight loss assay; type: in vivo; conditions: for Absolute body weight Day 21: mean ± SEM; for reduction in body weight relative to baseline: 21 days, n = 8/group
Description: The ability of NN1213 to reduce body weight was tested in DIO rats fed an HFD. Rats were dosed once daily sc with either vehicle or NN1213 (n = 8–10 per group). Food intake and body weight were measured daily on individually housed rats. […] Body fat and lean mass are expressed as changes from baseline.
VetXX, Specific CCD, Dechra, UK).
eaten within 30 min. […] In figure 4, mean accumulated food
rats were assessed in DIO rats.
controlled temperature conditions (22 °C).
Pharmacokinetic Evaluation.
Species n administration (nmol/kg) (h)

in vivo [1] = conditions: female, New Zealand white, rabbit, iv
Description: (§1) Blood samples were collected at fixed time points postdose to determine full PK profiles. Plasma samples were analyzed by ELISA. Plasma concentration–time profiles were analyzed by noncompartmental analysis.
Rabbits: Female rabbits (New Zealand white, Charles River; 21–23 weeks; 2.5–3.5 kg) were group-
housed (10 per cage) in normal day–night rhythm from arrival and had free access to food and water.
The rabbits were treated against coccidiosis during their 5-week acclimation period upon arrival. Iv
dosing was performed as a bolus injection into an ear vein with a dosing volume of 0.1 mL/kg. The
dosing solution was at room temperature before injection. Venous blood sampling was performed
directly through puncture of an ear vein using a needle. A full plasma concentration–time profile was
obtained from each animal.
Blood (300 µL) was collected directly into test
tubes containing EDTA buffer (Microvette CB 300 K2E). Samples were kept on wet ice until
centrifugation (10 min, 4 °C, 3000 rpm). Plasma (100 µL) was transferred immediately to Micronic
tubes and kept at –20 °C until analysis.
Plasma analysis: Plasma samples were analyzed by a commercially available kit (Millipore, Human
Amylin ELISA, cat. #EZHA-52-K). […]
was applied and the plate was read on a fluorescent reader with an excitation/emission wavelength of
samples. The lower limit of quantification (LLOQ) was 100–500 pM.

in vivo [2] = conditions: male, beagle, dog, iv
Pharmacokinetics in rats = conditions: male, Sprague-Dawley, rat, plasma, sc, 5 nmol/kg
Description: as §1
Pharmacokinetic Evaluation. Rats: Male Sprague-Dawley rats (Taconic, Europe; body weight
approximately 400 g) were group-housed under controlled temperature conditions (20 °C ± 2 °C).
Blood was collected from the sublingual vein and rats were acclimated to handling on three separate
occasions prior to blood collection.
the tail vein of five rats. Sc injections were performed in the neck of another group of five rats. The
dosing volume was 2 mL/kg.
collected into test tubes containing EDTA for stabilization and kept on ice until centrifugation. Each
blood sample was 100 µL. Plasma was separated from whole blood by centrifugation and was stored at
–20 °C or lower until analysis.

beagle dogs = assay: Acute dog food intake assay
cAMY1R = assay: Species-specific cAMP assay, cAMY1R; conditions: for Ratio CTR/AMY1R (canine, functional): ratio of cAMP EC50 values, canine receptors
cAMY3R = assay: Species-specific cAMP assay, cAMY3R; conditions: for Ratio CTR/AMY3R (canine, functional): ratio of cAMP EC50 values, canine receptors
rAMY1R = target: T1, rAMY1R (Rattus norvegicus, UniProt P32214+Q9JJ74); assay: Species-specific cAMP assay, rAMY1R; conditions: ratio of cAMP EC50 values, rat receptors
T1 sequence (P32214 25-516): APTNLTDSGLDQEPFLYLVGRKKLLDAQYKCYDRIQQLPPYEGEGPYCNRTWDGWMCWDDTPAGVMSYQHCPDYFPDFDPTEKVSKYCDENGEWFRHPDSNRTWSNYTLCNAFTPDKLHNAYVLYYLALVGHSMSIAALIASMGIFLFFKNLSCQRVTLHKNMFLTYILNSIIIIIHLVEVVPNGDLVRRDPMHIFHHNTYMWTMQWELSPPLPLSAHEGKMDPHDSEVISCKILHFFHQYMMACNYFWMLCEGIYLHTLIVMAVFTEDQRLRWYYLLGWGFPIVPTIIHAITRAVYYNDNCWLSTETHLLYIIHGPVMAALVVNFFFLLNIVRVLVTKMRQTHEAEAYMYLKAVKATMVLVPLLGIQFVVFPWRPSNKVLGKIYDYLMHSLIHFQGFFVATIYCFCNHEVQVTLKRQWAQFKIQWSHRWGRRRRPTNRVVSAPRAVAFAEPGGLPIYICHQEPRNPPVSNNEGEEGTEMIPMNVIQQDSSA
T1 sequence (Q9JJ74 27-148 partner): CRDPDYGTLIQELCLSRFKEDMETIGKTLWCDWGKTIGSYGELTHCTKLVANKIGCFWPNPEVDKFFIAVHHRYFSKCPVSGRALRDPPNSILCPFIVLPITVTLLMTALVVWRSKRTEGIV

mAMY3R = target: T2, mAMY3R (Mus musculus, UniProt Q60755+Q9WUP1); assay: Mouse receptor cAMP HTRF assay (BacMam, HeLa), mAMY3R; conditions: ratio of cAMP EC50 values, mouse receptors
T2 sequence (Q60755 42-496 isoform Q60755-2 limits assumed): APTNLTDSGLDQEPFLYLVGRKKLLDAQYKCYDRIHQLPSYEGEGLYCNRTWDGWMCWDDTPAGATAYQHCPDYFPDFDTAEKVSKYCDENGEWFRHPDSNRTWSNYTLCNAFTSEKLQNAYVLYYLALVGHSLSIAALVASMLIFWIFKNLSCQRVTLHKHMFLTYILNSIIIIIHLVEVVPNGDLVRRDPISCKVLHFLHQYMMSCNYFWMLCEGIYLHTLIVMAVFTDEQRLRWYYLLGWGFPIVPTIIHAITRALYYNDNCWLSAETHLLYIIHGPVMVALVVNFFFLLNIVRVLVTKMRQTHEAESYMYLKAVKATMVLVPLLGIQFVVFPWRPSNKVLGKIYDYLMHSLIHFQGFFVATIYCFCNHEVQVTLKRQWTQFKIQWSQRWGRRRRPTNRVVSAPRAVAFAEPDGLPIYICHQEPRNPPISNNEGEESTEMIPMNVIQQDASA
T2 sequence (Q9WUP1 24-147 partner limits assumed): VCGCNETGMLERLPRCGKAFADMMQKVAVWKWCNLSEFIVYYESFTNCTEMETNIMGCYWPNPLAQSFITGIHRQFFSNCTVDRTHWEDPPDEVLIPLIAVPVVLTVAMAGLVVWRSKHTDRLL
Description: Mouse Receptors (Functional Assay Only). Cell culture: HeLa cells were cultured in an incubator at 37 °C and 5% CO2, in cell culture medium (DMEM with 10% [v/v] FBS, 1% [w/w] penicillin/streptomycin).
Cell seeding in T75 flasks (day 1): The day before transfection of the cells, 2 x 10^6 HeLa cells were seeded in three T75 flasks and incubated overnight. Media was removed from 1–2 T175 flasks and cells were washed once with Dulbecco PBS (with Mg2+ and Ca2+). Cells were detached with 2 mL TrypLE Express for 5 min in an incubator. Five mL pre-warmed media was added to each T75 flask and mixed with the cell suspension. Cells were counted in 100 µL of this suspension. The cell suspension was centrifuged at 1200 rpm for 4 min and the supernatant was discarded. The cells were re-suspended in media and 2 x 10^6 cells were seeded in approximately 15 mL in each of the three T75 flasks. The flasks were incubated overnight.
with 20 µL poly-d-lysin/well for 2–3 h at 37 °C. The plates were washed twice with PBS and allowed
Transfection of cells (day 2): Reagents were acclimated to room temperature for 30 min. Media was
removed from the T75 flasks, and cells were washed once with PBS (with Mg2+ and Ca2+). Cells were
Seeding of transfected cells in assay plates (day 2): Following the 3-h transduction, T75 flasks were
washed once with PBS (with Mg2+ and Ca2+). […]
mL pre-warmed media and counted.

rAMY3R = target: T3, rAMY3R (Rattus norvegicus, UniProt P32214+Q9JJ73); assay: Whole-cell competition binding, rAMY3R; parameters: expressed in transfected cells; host or cells: BHK tk-ts 13, transient co-transfection (FuGENE 6); conditions: IC50 for the CTR divided by that of the AMYR, rat receptors
T3 sequence (P32214 25-479 isoform P32214-2 limits assumed): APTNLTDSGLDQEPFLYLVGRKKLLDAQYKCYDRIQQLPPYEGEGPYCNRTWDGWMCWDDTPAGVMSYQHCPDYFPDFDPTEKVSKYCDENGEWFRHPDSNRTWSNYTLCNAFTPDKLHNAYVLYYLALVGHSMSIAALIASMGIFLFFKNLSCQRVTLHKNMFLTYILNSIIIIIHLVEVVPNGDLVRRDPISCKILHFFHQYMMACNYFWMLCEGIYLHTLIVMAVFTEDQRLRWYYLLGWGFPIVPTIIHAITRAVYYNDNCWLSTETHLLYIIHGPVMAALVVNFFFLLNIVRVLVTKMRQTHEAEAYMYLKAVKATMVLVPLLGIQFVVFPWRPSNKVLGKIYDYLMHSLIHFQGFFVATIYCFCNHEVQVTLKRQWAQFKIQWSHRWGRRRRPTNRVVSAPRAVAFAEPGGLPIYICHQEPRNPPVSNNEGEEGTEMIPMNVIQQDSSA
T3 sequence (Q9JJ73 23-147 partner): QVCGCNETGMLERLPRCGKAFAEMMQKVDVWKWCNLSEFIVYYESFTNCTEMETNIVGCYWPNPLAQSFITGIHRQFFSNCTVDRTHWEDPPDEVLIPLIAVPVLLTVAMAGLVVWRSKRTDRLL

[3] = cAMP HTRF, transiently transfected BHK cells, 30 min room temperature, five experiments

CC[C@H](C)[C@H](NC(=O)[C@H](C)NC(=O)CNC(=O)[C@H](Cc1ccccc1)NC(=O)[C@H](CC(N)=O)NC(=O)[C@@H]1CCCN1C(=O)[C@H](CO)NC(=O)[C@H](CO)NC(=O)[C@H](Cc1c[nH]cn1)NC(=O)[C@H](CCCNC(=N)N)NC(=O)[C@H](CC(C)C)NC(=O)[C@H](Cc1ccccc1)NC(=O)[C@H](CC(=O)O)NC(=O)[C@H](C)NC(=O)[C@H](CC(C)C)NC(=O)[C@H](CCCNC(=N)N)NC(=O)[C@H](CCC(N)=O)NC(=O)[C@@H](NC(=O)[C@H](C)NC(=O)[C@@H]1CSSC[C@H](NC(=O)[C@@H](N)CCCCNC(=O)CC[C@H](NC(=O)CC[C@H](NC(=O)CCCCCCCCCCCCCCCCCCC(=O)O)C(=O)O)C(=O)O)C(=O)N[C@@H](CC(N)=O)C(=O)N[C@@H]([C@@H](C)O)C(=O)N[C@@H](C)C(=O)N[C@@H]([C@@H](C)O)C(=O)N1)[C@@H](C)O)C(=O)N1CCC[C@H]1C(=O)N[C@@H](CO)C(=O)N[C@@H](CO)C(=O)N[C@H](C(=O)N[C@@H](CC(N)=O)C(=O)N[C@H](C(=O)NCC(=O)N[C@@H](CO)C(=O)N[C@@H](CCCNC(=N)N)C(=O)N[C@H](C(=O)N[C@@H](Cc1ccc(O)cc1)C(N)=O)[C@@H](C)O)C(C)C)[C@@H](C)O [NN1213]
Absolute body weight Day 21 (DIO rats; 3 µg/kg (0.7 nmol/kg) sc once daily): 705.5 ± 38.4 g | Absolute body weight Day 21 (DIO rats; 10 µg/kg (2.2 nmol/kg) sc once daily): 664.4 ± 19.3 g | Absolute body weight Day 21 (DIO rats; 30 µg/kg (6.6 nmol/kg) sc once daily): 682.4 ± 27.7 g | Absolute body weight Day 21 (DIO rats; 100 µg/kg (22 nmol/kg) sc once daily): 667.8 ± 11.9 g | body weight lost after 21 days (DIO rats; high-dose group (22 nmol/kg) sc once daily): 69.6 ± 7.5 g | body weight lost after 21 days (DIO rats; low-dose group 0.7 nmol/kg sc once daily): 32.0 ± 3.6 g | reduction in body weight relative to baseline (DIO rats; sc once daily 0.7 nmol/kg): 4.7% | reduction in body weight relative to baseline (DIO rats; sc once daily 2.2, 6.6, 22 nmol/kg doses): 8.7–9.3% | half-life (in vivo [1]): 2940 min | half-life (in vivo [2]): 3.17 days | bioavailability (Pharmacokinetics in rats): ~40% | food intake reduction, first 48 h (beagle dogs; single sc administration 300 nmol/kg, four meals over 48 h): 90% | effect on appetite (beagle dogs; single sc dose 3 nmol/kg): did not affect appetite | duration of appetite suppression (beagle dogs; single sc dose 30 nmol/kg): at least 7 days | tolerability (discomfort, vomiting) (beagle dogs; single sc dose ranging from 3 to 300 nmol/kg): not associated with any signs of discomfort in the dogs and no vomiting | cAMY1R pEC50 (cAMY1R; [3]): 9.87 | Ratio CTR/AMY1R (canine, functional) (cAMY1R): 3 | Ratio CTR/AMY1R (canine, functional) (cAMY1R; listed as NN1213/peptide 21): 2 | cAMY3R pEC50 (cAMY3R; [3]): 9.74 | Ratio CTR/AMY3R (canine, functional) (cAMY3R): 2 | Ratio CTR/AMY3R (canine, functional) (cAMY3R; listed as NN1213/peptide 21): 3 | Ratio CTR/AMY1R (rat, functional) (rAMY1R): 336 | Ratio CTR/AMY3R (mouse, functional) (mAMY3R): 24 | Ratio CTR/AMY3R (rat, binding) (rAMY3R): 52
